“And” between values parts separate entries of the source, which are not always exact repeats. Equal entries are not always repeated. Where two headings read alike, the source gives them in different places. Marks after values point to notes of the source that are not given here.
Experiments:
[1] = test system: C. botulinum spores (Type A: NCTC 7272, Type E: LFMFP-CB 707 and Type E: LFMFP-CB 666); format: cell-based, Clostridium botulinum; conditions: 7° C.; for Anaerobic count: Blend 0.4%, Repl 1 and Repl 2
[2] = Lipid oxidation (TBARS) in cooked sausages; conditions: 7° C., shelf life of 8 weeks; threshold for off-odor 0.5 ppm
Listeria monocytogenes [3] = experiment: Listeria monocytogenes challenge study, Example 6; format: cell-based; conditions: after 3 weeks at 7° C.; inoculum 2.6 log10CFU/g
botulinum toxin = test system: botulinum toxin; set-up: species or system Clostridium botulinum
C. botulinum spores = format: cell-based, Clostridium botulinum
[4] = Physico-chemical parameters of low salt emulsified cooked pork sausages, Example 6
Listeria monocytogenes [5] = experiment: Listeria monocytogenes challenge test, Example 5 experiment 1; format: cell-based
[6] = Color evaluation (L*a*b*, C*, hue) of sausages with black carrot extract, Example 2; conditions: 50 days at 7° C., dark or illuminated last 72 h
[7] = low salt (1.2%) sausage, dosages per Table 23
[8] = low salt sausage, dosages per Table 23

O=NO [Positive control, sodium nitrite]
growth of C. botulinum ([1]; 8 weeks, 0.4% of the invented blend): no growth
Anaerobic count ([1]; storage time 0 days): 3.08 log10CFU/g and 2.73 log10CFU/g
Anaerobic count ([1]; storage time 14 days): 2.75 log10CFU/g and 2.70 log10CFU/g
Anaerobic count ([1]; storage time 28 days): 2.61 log10CFU/g and 2.62 log10CFU/g
Anaerobic count ([1]; storage time 42 days): 2.67 log10CFU/g and 2.46 log10CFU/g
Anaerobic count ([1]; storage time 56 days): 2.49 log10CFU/g and 2.43 log10CFU/g
Lipid oxidation (TBARS values) [2]: maintain low TBARS values
L. monocytogenes count (Listeria monocytogenes [3]): more than 7 log10CFU/g
Number of samples in which botulinum toxin was detected to total analyzed samples (botulinum toxin): 0/2
Clostridium botulinum outgrowth (C. botulinum spores; 7° C., 8 weeks, significant growth = >0.5 log10CFU/g): no growth of C. botulinum
Anaerobic count (average ± standard deviation, n = 2) (C. botulinum spores; storage time 0 days at 7° C., dosages per Table 23): 3.7 ± 0.1 log10CFU/g
Anaerobic count (average ± standard deviation, n = 2) (C. botulinum spores; storage time 14 days at 7° C., * significant outgrowth (>0.5 log10CFU/g) in at least one replicate): 2.3 ± 0.3 log10CFU/g
Anaerobic count (average ± standard deviation, n = 2) (C. botulinum spores; storage time 24 days at 7° C., * significant outgrowth (>0.5 log10CFU/g) in at least one replicate): 2.4 ± 0.0 log10CFU/g
Anaerobic count (average ± standard deviation, n = 2) (C. botulinum spores; storage time 42 days at 7° C., * significant outgrowth (>0.5 log10CFU/g) in at least one replicate): 2.2 ± 0.1 log10CFU/g
Anaerobic count (average ± standard deviation, n = 2) (C. botulinum spores; storage time 56 days at 7° C., * significant outgrowth (>0.5 log10CFU/g) in at least one replicate): 2.2 ± 0.0 log10CFU/g
aw ([4]; 25° C., low salt sausage, dosages per Table 23): 0.978
Salt content ([4]; calculated based on sodium content, low salt sausage): 1.55%
Salt content in aqueous phase ([4]; calculated from salt content and moisture content): 2.9%
pH of cooked meat [4, 7]: 6.21^a
pH of meat batter [4, 7]: 5.87^ab
Acetic acid content [4, 8]: 0.008%
Moisture content [4, 8]: 52.3%
L. monocytogenes count (Listeria monocytogenes [5]; after 8 weeks at 7° C., inoculum 300 CFU/g): 7 log10CFU/g
time to 1 log increase of L. monocytogenes (Listeria monocytogenes [5]; positive control with nitrite, 7° C.): 14 days
Color stability during storage [6]: faded drastically

— patent publication US20220386635A1, “NITRITE REPLACEMENT (CURING AIDS) CONTAINING NATURAL INGREDIENTS” (KEMIN INDUSTRIES, INC., priority 2021, published 2022)
